Measurements reported in ChEMBL document CHEMBL5385865, “Discovery and optimization of 2-(trifluoromethyl)benzimidazole derivatives as novel ferroptosis inducers in vitro and in vivo” (Eur J Med Chem, 2023).
Active and inactive are the calls of the source. The calls are words filed in the database; no cut-off is given here.

What was measured:
HT-1080 [1] = test: Lethality in human HT-1080 cells assessed as inhibition of cell viability incubated for 24 hrs by MTT assay; type: functional, cell-based; settings: HT-1080, 24 h
HT-1080 [2] = test: Induction of ferroptosis in human HT-1080 cells assessed as increase in mitochondrial membrane density at 5 uM incubated for 24 hrs by TEM analysis; type: functional, cell-based
[3] = Metabolic stability in human liver microsomes assessed as intrinsic clearance measured per mg protein at 1 uM in presence of NADPH by LC-MS analysis; type: ADME, Microsome; settings: read-out: CLH
[4] = Metabolic stability in human liver microsomes assessed as half life at 1 uM in presence of NADPH by LC-MS analysis; type: ADME, Microsome
HT-1080 [5] = test: Induction of ferroptosis in human HT-1080 cells assessed as cell death at 10 uM incubated for 24 hrs in presence of Fer-1 by MTT assay; type: functional, cell-based
HT-1080 [6] = test: Induction of ferroptosis in human HT-1080 cells assessed as cell death at 10 uM incubated for 24 hrs in presence of Trolox by MTT assay; type: functional, cell-based
HT-1080 [7] = test: Induction of ferroptosis in human HT-1080 cells assessed as cell death at 10 uM incubated for 24 hrs in presence of DFO by MTT assay; type: functional, cell-based
HT-1080 [8] = test: Induction of ferroptosis in human HT-1080 cells assessed as cell death at 10 uM incubated for 24 hrs in presence of Z-VAD-FMK by MTT assay; type: functional, cell-based
HT-1080 [9] = test: Induction of ferroptosis in human HT-1080 cells assessed as cell death at 5 uM incubated for 24 hrs in presence of Fer-1 by morphology based microscopy; type: functional
HT-1080 [10] = test: Induction of ferroptosis in human HT-1080 cells assessed as cell death at 5 uM incubated for 6 hrs in presence of ferric ammonium citrate by fluorescent microscopy; type: functional, cell-based
HT-1080 [11] = test: Induction of ferroptosis in human HT-1080 cells assessed as cell death at 5 uM incubated for 6 hrs in presence of ferric citrate by fluorescent microscopy; type: functional, cell-based
HT-1080 [12] = test: Induction of ferroptosis in human HT-1080 cells assessed as increase in cytosolic ROS accumulation incubated for 10 hrs by H2DCFDA probe based flow cytometry; type: functional, cell-based; settings: dose 0.5-5 µM
HT-1080 [13] = test: Induction of ferroptosis in human HT-1080 cells assessed as increase in CHAC1 mRNA level incubated for 6 hrs by qPCR analysis; type: functional, cell-based; settings: dose 0.5-5 µM
HT-1080 [14] = test: Effect on GPX4 mRNA level in human HT-1080 cells at 0.5 to 5 uM incubated for 18 hrs by qPCR analysis; type: functional, cell-based; settings: dose 0.5-5 µM
HT-1080 [15] = test: Induction of ferroptosis in human HT-1080 cells overexpressing SLC7A11 assessed as increase in lipid peroxidation by BODIPY-C11 probe based confocal laser scanning microscopy; type: functional, cell-based
HepG2 [16] = test: Lethality in human HepG2 cells assessed as inhibition of cell viability incubated for 24 hrs by MTT assay; type: functional, cell-based; settings: HepG2, 24 h
A-375 [17] = test: Lethality in human A-375 cells assessed as inhibition of cell viability incubated for 24 hrs by MTT assay; type: functional, cell-based; settings: A-375, 24 h
786-0 [18] = test: Lethality in human 786-0 cells assessed as decrease in cell viability at 10 uM incubated for 48 hrs by MTT assay; type: functional, cell-based
MDA-MB-231 [19] = test: Lethality in human MDA-MB-231 cells assessed as decrease in cell viability at 10 uM incubated for 48 hrs by MTT assay; type: functional, cell-based
A-375 [20] = test: Lethality in human A-375 cells assessed as decrease in cell viability at 10 uM incubated for 48 hrs by MTT assay; type: functional, cell-based
DU-145 [21] = test: Lethality in human DU-145 cells assessed as decrease in cell viability at 10 uM incubated for 48 hrs by MTT assay; type: functional, cell-based
786-0 [22] = test: Lethality in human 786-0 cells assessed as decrease in cell viability at 10 uM incubated for 48 hrs in presence of Fer-1 by MTT assay; type: functional, cell-based
MDA-MB-231 [23] = test: Lethality in human MDA-MB-231 cells assessed as decrease in cell viability at 10 uM incubated for 48 hrs in presence of Fer-1 by MTT assay; type: functional, cell-based
HeLa = test: Lethality in human HeLa cells assessed as decrease in cell viability at 10 uM incubated for 48 hrs in presence of Fer-1 by MTT assay; type: functional, cell-based
HepG2 [24] = test: Lethality in human HepG2 cells assessed as decrease in cell viability at 10 uM incubated for 48 hrs in presence of Fer-1 by MTT assay; type: functional, cell-based
MDA-MB-231 [25] = test: Lethality in human MDA-MB-231 cells assessed as decrease in cell viability at 10 uM incubated for 48 hrs in presence of DFO by MTT assay; type: functional, cell-based
HepG2 [26] = test: Lethality in human HepG2 cells assessed as decrease in cell viability at 10 uM incubated for 48 hrs in presence of DFO by MTT assay; type: functional, cell-based
DU-145 [27] = test: Lethality in human DU-145 cells assessed as decrease in cell viability at 10 uM incubated for 48 hrs in presence of DFO by MTT assay; type: functional, cell-based
[28] = Toxicity in human AC16 cells upto 20 uM incubated for 48 hrs by MTT assay; type: cell-based; settings: ac16 [human hybrid]
[29] = Toxicity in human NCM460 cells upto 20 uM incubated for 48 hrs by MTT assay; type: cell-based; settings: ncm460, 48 h
HepG2 [30] = test: Antitumor activity against human HepG2 cells xenografted in BALB/c nude mouse assessed as tumor growth inhibition at 30 mg/kg, ip administered every other day for 21 days by electronic caliper analysis relative to control; type: functional; settings: HepG2, 504 h, time 21 day, read-out: TGI
[31] = Toxicity in BALB/c nude mouse xenografted with human HepG2 cells assessed as effect on serum LDH level at 15 to 30 mg/kg, ip administered every other day for 21 days; type: organism-based; settings: in vivo, 504 h, dose 15-30 mg/kg, time 21 day
[32] = Toxicity in BALB/c nude mouse xenografted with human HepG2 cells assessed as histological change in spleen at 15 to 30 mg/kg, ip administered every other day for 21 days by H and E staining based analysis; type: organism-based; settings: in vivo, 504 h, dose 15-30 mg/kg, time 21 day
[33] = Toxicity in BALB/c nude mouse xenografted with human HepG2 cells assessed as histological change in lung at 15 to 30 mg/kg, ip administered every other day for 21 days by H and E staining based analysis; type: organism-based; settings: in vivo, 504 h, dose 15-30 mg/kg, time 21 day
[34] = Toxicity in BALB/c nude mouse xenografted with human HepG2 cells assessed as histological change in kidney at 15 to 30 mg/kg, ip administered every other day for 21 days by H and E staining based analysis; type: organism-based; settings: in vivo, 504 h, dose 15-30 mg/kg, time 21 day
HepG2 [35] = test: Induction of ferroptosis in human HepG2 cells xenografted in BALB/c nude mouse assessed as increase in 4-HNE level administered intraperitoneally every other day for 21 days; type: functional; settings: dose 15-30 mg/kg, route ip, time 21.0 day
HepG2 [36] = test: Induction of ferroptosis in human HepG2 cells xenografted in BALB/c nude mouse assessed as increase in MDA level administered intraperitoneally every other day for 21 days; type: functional; settings: dose 15-30 mg/kg, route ip, time 21.0 day

CN(C)S(=O)(=O)c1ccc(N2CCC(Cn3c(C(F)(F)F)nc4ccccc43)CC2)cc1
IC50 (HT-1080 [1]): 1.26 µM | Activity (HT-1080 [2]): Active | microsomal CLint at 1 µM [3]: 88.6 µL/min/mg | half-life at 1 µM [4]: 15.6 min | Activity (HT-1080 [5]): inactive | Activity (HT-1080 [6]): inactive | Activity (HT-1080 [7]): inactive | Activity (HT-1080 [8]): Active | Activity (HT-1080 [9]): inactive | Activity (HT-1080 [10]): Active | Activity (HT-1080 [11]): Active | Activity (HT-1080 [12]): Dose-Dependent Effect | Activity (HT-1080 [13]): Dose-Dependent Effect | Activity (HT-1080 [14]): inactive | Activity (HT-1080 [15]): inactive | IC50 (HepG2 [16]): 1.33 µM | IC50 (A-375 [17]): 2.31 µM | Activity (786-0 [18]): Active | Activity (MDA-MB-231 [19]): Active | Activity (A-375 [20]): Active | Activity (DU-145 [21]): Active | Activity (786-0 [22]): inactive | Activity (MDA-MB-231 [23]): inactive | Activity (HeLa): inactive | Activity (HepG2 [24]): inactive | Activity (MDA-MB-231 [25]): inactive | Activity (HepG2 [26]): inactive | Activity (DU-145 [27]): inactive | Activity [28]: Non-Toxic | Activity [29]: Non-Toxic | inhibition in vivo at 30 mg/kg (HepG2 [30]): 77.1% | Activity [31]: Non-Toxic | Activity [32]: Non-Toxic | Activity [33]: Non-Toxic | Activity [34]: Non-Toxic | Activity (HepG2 [35]): Dose-Dependent Effect | Activity (HepG2 [36]): Dose-Dependent Effect
